According to ChEMBL document CHEMBL3734649, “H2O-mediated isatin spiro-epoxide ring opening with NaCN: Synthesis of novel 3-tetrazolylmethyl-3-hydroxy-oxindole hybrids and their anticancer evaluation” (Eur J Med Chem, 2015):

How the values were obtained:
Type in all cases: functional, cell-based
[1] = Anticancer activity against human PC3 cells after 48 hrs by MTT assay; details: PC-3, 48 h
[2] = Anticancer activity against human BT549 cells after 48 hrs by MTT assay; details: BT-549, 48 h
[3] = Anticancer activity against human PA1 cells after 48 hrs by MTT assay; details: PA-1, 48 h
[4] = Anticancer activity against human DU145 cells after 48 hrs by MTT assay; details: DU-145, 48 h
MDA-MB-231 = experiment: Anticancer activity against human MDA-MB-231 cells after 48 hrs by MTT assay; details: MDA-MB-231, 48 h

For `O=C1N(Cc2ccc(Br)cc2)c2ccc(Cl)cc2C1(O)Cc1nnn[nH]1` (stereo not given), the IC50 [1] was 87.9 µM, the IC50 [2] was 74.5 µM and the IC50 [3] was 35.8 µM. The IC50 [4] was 19.5 µM and the IC50 (MDA-MB-231) was > 100 µM.

In the case of `O=C1N(Cc2ccccc2)c2ccc(F)cc2C1(O)Cc1nnn[nH]1` (stereo not given), the IC50 [1] is reported as > 100 µM, the IC50 [2] is reported as 78.7 µM and the IC50 [3] is reported as > 100 µM. The IC50 [4] was > 100 µM and the IC50 (MDA-MB-231) was 27.2 µM.

With `CN1C(=O)C(O)(Cc2nnn[nH]2)c2ccccc21` (stereo not given) the IC50 [1] was 44.8 µM, the IC50 [2] was > 100 µM and the IC50 [3] was 45.5 µM. The IC50 [4] was 36.8 µM and the IC50 (MDA-MB-231) was > 100 µM.

For `CCN1C(=O)C(O)(Cc2nnn[nH]2)c2ccccc21` (stereo not given), the IC50 [1] was > 100 µM, the IC50 [2] was > 100 µM and the IC50 [3] was > 100 µM. For the same compound, the IC50 [4] was > 100 µM and the IC50 (MDA-MB-231) was > 100 µM.

In the case of `O=C1N(Cc2ccccc2)c2ccc(Cl)cc2C1(O)Cc1nnn[nH]1` (stereo not given), the IC50 [1] is reported as > 100 µM, the IC50 [2] is reported as > 100 µM and the IC50 [3] is reported as 100 µM. For the same compound, the IC50 [4] was > 100 µM and the IC50 (MDA-MB-231) was 30.3 µM.

For `CN1C(=O)C(O)(Cc2nnn[nH]2)c2cc(Br)ccc21` (stereo not given), the IC50 [1] was > 100 µM, the IC50 [2] was > 100 µM and the IC50 [3] was > 100 µM. The IC50 [4] was > 100 µM and the IC50 (MDA-MB-231) was 67.3 µM.

In the case of `Cc1ccc2c(c1)C(O)(Cc1nnn[nH]1)C(=O)N2C` (stereo not given), the IC50 [1] is reported as > 100 µM, the IC50 [2] is reported as > 100 µM and the IC50 [3] is reported as > 100 µM. For the same compound, the IC50 [4] was > 100 µM and the IC50 (MDA-MB-231) was > 100 µM.

For `CCN1C(=O)C(O)(Cc2nnn[nH]2)c2cc(Br)ccc21` (stereo not given), the IC50 [1] was > 100 µM, the IC50 [2] was > 100 µM and the IC50 [3] was > 100 µM. For the same compound, the IC50 [4] was > 100 µM and the IC50 (MDA-MB-231) was > 100 µM.

With `O=C1N(Cc2ccc(Br)cc2)c2ccc(Br)cc2C1(O)Cc1nnn[nH]1` (stereo not given) the IC50 [1] was > 100 µM, the IC50 [2] was 88.8 µM and the IC50 [3] was > 100 µM. For the same compound, the IC50 [4] was 59.6 µM and the IC50 (MDA-MB-231) was 65.4 µM.

In the case of `CCN1C(=O)C(O)(Cc2nnn[nH]2)c2cc(Cl)ccc21` (stereo not given), the IC50 [1] is reported as 79.3 µM, the IC50 [2] is reported as 85.4 µM and the IC50 [3] is reported as 49.5 µM. For the same compound, the IC50 [4] was 21.5 µM and the IC50 (MDA-MB-231) was 84.9 µM.
